Experiments:
Assay type in all cases: in vivo
[1] = system: Tefranychus urticae Koch; experiment: Mite adulticide test (MI); conditions: 1000 ppm spray to run off on cowpea leaves; adult mites added 1 day after treatment, read five days later
Procedure: (§1) Stock solutions of each of the compounds were prepared at 1000 ppm by dissolving 0.08 gram of each compound to be tested in 8 mL of acetone and adding 72 mL of distilled water plus 3 drops of ethoxylated sorbitan monolaurate, a wetting agent. […] For each example that follows, these stock solutions were used and the specified dilutions made. All the tests discussed below, which involved treatment with compounds of this invention, were always repeated with controls to permit a comparison upon which the percent control was calculated. One day before treatment of cowpea primary leaves with the test solutions, a “FIG. 8” configuration of tree tanglefoot was applied to each of two cowpea primary leaves, one from each of two plants in a pot. In each “Figure”, the circle nearer the stem was designated for the mite ovicide test and the circle farther from the stem was designated for the mite adulticide test. Groups of adult mites (Tefranychus urticae Koch) were transferred into ovicide circles one day before treatment and the females were allowed to deposit eggs until one hour before treatment, at which point all the adults were removed. The plants were then sprayed to run off with each 1000 ppm stock solution of Example 2. One day following treatment of the plants with the test solution, groups of approximately 25 adult mites were transferred into the adulticide rings. Five days later, these rings were examined for live mites remaining on the leaves. The percent control was estimated based on the number of mites surviving on the control plants. Nine days following treatment the ovicide rings were examined for unhatched eggs and living immature mites. The percent control was estimated based on the number of unhatched eggs.

[2] = system: Southern Corn Rootworm (Diabrotica undecimpuncatat); experiment: Southern corn rootworm test (CR); conditions: 100 ppm test solution, corn seedlings on filter paper; second instar larvae; after five days; corrected by Abbott's formula
Procedure: Stock solutions of each of the compounds were prepared at 1000 ppm by dissolving 0.08 gram of each compound to be tested in 8 mL of acetone and adding 72 mL of distilled water plus 3 drops of ethoxylated sorbitan monolaurate, a wetting agent. […] For each example that follows, these stock solutions were used and the specified dilutions made. All the tests discussed below, which involved treatment with compounds of this invention, were always repeated with controls to permit a comparison upon which the percent control was calculated. One thousand ppm of each stock solution of Example 2 was diluted to 100 ppm (the “test solution”). For each compound, 2.5 mL of each test solution was pipetted onto a filter paper (Whatman #3) at the bottom of a 100 mm petri dish. Two corn seedlings were soaked in the 100 ppm solution for one hour and transferred to the petri dish containing the same test solution. After 24 hours, each dish was loaded with 5 second instar larvae of Southern Corn Rootworm (Diabrotica undecimpuncatat). After five days, the number of live larvae was noted and the percent control, corrected by Abbott's formula, was calculated.

[3] = system: rice delphacids, Sogatodes orizicola; experiment: Rice planthopper foliar test (RPH); conditions: 1000 ppm spray on rice seedlings; adults added 1 day after treatment, counted five days after transferring
Procedure: (§2) Stock solutions of each of the compounds were prepared at 1000 ppm by dissolving 0.08 gram of each compound to be tested in 8 mL of acetone and adding 72 mL of distilled water plus 3 drops of ethoxylated sorbitan monolaurate, a wetting agent. […] For each example that follows, these stock solutions were used and the specified dilutions made. All the tests discussed below, which involved treatment with compounds of this invention, were always repeated with controls to permit a comparison upon which the percent control was calculated.
One thousand ppm of each stock solution of Example 2 was used for this test. One pot containing approximately 20 rice seedlings was treated with each formulation by spraying with a spray atomizer. One day after treatment, plants were covered with a tubular cage and 20 adult rice delphacids, Sogatodes orizicola, were transferred into each cage. Five days after transferring, counts were made of the surviving planthoppers in each pot and percent control was estimated.

[4] = system: Tefranychus urticae Koch eggs; experiment: Mite ovicide test (MIOV); conditions: 1000 ppm spray to run off on cowpea leaves; unhatched eggs read nine days following treatment
Procedure: as §1

[5] = system: Helicoverpa virescens larva; experiment: Tobacco budworm test (TB); conditions: 0.2 mL of 1000 ppm stock solution on diet cell surface; second instar larva; after 14 days; corrected by Abbott's formula
Procedure: as §2
For each compound tested, 0.2 mL of each stock solution of Example 2 was pipetted onto the surfaces of each of five diet cells, allowed to spread over the surfaces, and air dried for two hours. Then, a second instar Helicoverpa virescens larva was introduced into each cell. After 14 days, the number of living larvae was determined for each treatment and percent control, corrected by Abbott's formula (J. Econ. Entomology (1925, 265-267), was calculated. The results of the testing of tobacco budworms (TB) are presented in Table 2.

[6] = system: root knot nematode (Meloidogmne incognita); experiment: Nematode test (NE); conditions: soil drench, soil concentration of 50 ppm; tomato seedling roots evaluated for galls nineteen days after planting
Procedure: Stock solutions of each of the compounds were prepared at 1000 ppm by dissolving 0.08 gram of each compound to be tested in 8 mL of acetone and adding 72 mL of distilled water plus 3 drops of ethoxylated sorbitan monolaurate, a wetting agent. […] For each example that follows, these stock solutions were used and the specified dilutions made. All the tests discussed below, which involved treatment with compounds of this invention, were always repeated with controls to permit a comparison upon which the percent control was calculated. One thousand ppm of each stock solution of Example 2 was used for this test. For each test solution, 25 mL was drenched onto separate 500 gram samples of soil infested with root knot nematode (Meloidogmne incognita) eggs in a pot, for a soil concentration of 50 ppm. One day after treatment, two tomato seedlings were planted in each pot. Nineteen days after planting, the roots were evaluated for the presence of knots or galls, and the percent control was estimated on the infestation levels in check plants.

Compound: FCCn1cc(-c2ccc(C(F)(F)F)cc2)cn1 [Compound 3]
- Percent Control MI [1]: 0%
- Percent Control CR [2]: 100%
- Percent Control RPH [3]: 0%
- Percent Control MIOV [4]: 0%
- Percent Control TB [5]: 100%
- Percent Control NE [6]: 0%

Compound: FCCn1cc(-c2ccc(Cl)c(Cl)c2)cn1 [Compound 5]
- Percent Control MI [1]: 100%
- Percent Control CR [2]: 63%
- Percent Control RPH [3]: 0%
- Percent Control MIOV [4]: 100%
- Percent Control TB [5]: 0%
- Percent Control NE [6]: 60%

Compound: FCCn1cc(-c2ccc(OC(F)(F)F)cc2)cn1 [Compound 7]
- Percent Control MI [1]: 0%
- Percent Control CR [2]: 100%
- Percent Control RPH [3]: 85%
- Percent Control MIOV [4]: 100%
- Percent Control TB [5]: 0%
- Percent Control NE [6]: 100%

Compound: FCCC1(c2ccccc2)C=NNC1 (stereo not drawn) [Compound 1, 4-(2-fluoroethyl)-4-phenyl-1H-pyrazole]
- Percent Control MI [1]: 0%
- Percent Control CR [2]: 0%
- Percent Control RPH [3]: 20%
- Percent Control MIOV [4]: 100%
- Percent Control TB [5]: 20%
- Percent Control NE [6]: 50%

Compound: FCCn1cc(-c2ccc(Cl)cc2)cn1 [Compound 2]
- Percent Control MI [1]: 100%
- Percent Control CR [2]: 100%
- Percent Control RPH [3]: 0%
- Percent Control MIOV [4]: 100%
- Percent Control TB [5]: 40%
- Percent Control NE [6]: 100%

Compound: FCCn1cc(-c2cccc(C(F)(F)F)c2)cn1 [Compound 6]
- Percent Control MI [1]: 0%
- Percent Control CR [2]: 100%
- Percent Control RPH [3]: 85%
- Percent Control MIOV [4]: 100%
- Percent Control TB [5]: 0%
- Percent Control NE [6]: 100%

Compound: FCCn1cc(-c2cccc(Br)c2)cn1 [Compound 4]
- Percent Control MI [1]: 100%
- Percent Control CR [2]: 0%
- Percent Control RPH [3]: 0%
- Percent Control MIOV [4]: 100%
- Percent Control TB [5]: 7%
- Percent Control NE [6]: 100%

— patent US6451835B1, “Pesticidal fluoroethyl pyrazole derivatives” (Uniroyal Chemical Company, Inc., priority 2001, dated 2002)
